Measurements taken from US4064345A, “Cephalosporins derivatives 7-cyclized α-amino-3-heterothio” (Bristol-Myers Company, priority 1976, dated 1977).
≈ marks a conversion by molar mass, not a printed value. Entries after “also recorded” stand apart in the source; their conditions may differ.

Legend:
S. pneumoniae A9585 = experiment: Antibiotic spectrum in nutrient broth (MIC); type: cell-based; settings: Streptococcus pneumoniae, 10^-3 dilution of overnight broth culture, 45% AAB + serum + 50% broth, BL-S1057/BL-S1058 adjusted for 80%/59% content of BL-S643
Description: (§1) Antibiotic Spectrum of BL-S643 Derivatives in Nutrient Broth
(§2) *45% AAB + serum + 50% broth listed above.
(§3) **Dilution of overnight broth
(§4) ^(1) Adjusted for 80% content of BL-S643.
(§5) ^(2) Adjusted for 59% content of BL-S643.
(§6) In other words, the numerical values are lowered, i.e. improved. This

Str. pyogenes A9604 = experiment: Antibiotic spectrum in nutrient broth (MIC); type: cell-based; settings: Streptococcus pyogenes, 10^-3 dilution of overnight broth culture, 45% AAB + serum + 50% broth, BL-S1057/BL-S1058 adjusted for 80%/59% content of BL-S643
Description: as §1, §2, §3, §4, §5, §6

E. coli A9675 = experiment: Antibiotic spectrum in nutrient broth (MIC); type: cell-based; settings: Escherichia coli, 10^-4 dilution, BL-S1057/BL-S1058 adjusted for 80%/59% content of BL-S643
Description: as §1, §3, §4, §5, §6

E. coli Juhl A15119 = experiment: Antibiotic spectrum in nutrient broth (MIC); type: cell-based; settings: Escherichia coli, JUHLA15119, 10^-4 dilution, BL-S1057/BL-S1058 adjusted for 80%/59% content of BL-S643
Description: as §1, §3, §4, §5, §6

Ent. cloacae A9656 = experiment: Antibiotic spectrum in nutrient broth (MIC); type: cell-based; settings: Enterobacter cloacae, 10^-4 dilution, BL-S1057/BL-S1058 adjusted for 80%/59% content of BL-S643
Description: as §1, §3, §4, §5, §6

Ent. cloacae A9657 = experiment: Antibiotic spectrum in nutrient broth (MIC); type: cell-based; settings: Enterobacter cloacae, 10^-4 dilution, BL-S1057/BL-S1058 adjusted for 80%/59% content of BL-S643
Description: as §1, §3, §4, §5, §6

Ent. cloacae A9659 = experiment: Antibiotic spectrum in nutrient broth (MIC); type: cell-based; settings: Enterobacter cloacae, 10^-4 dilution, BL-S1057/BL-S1058 adjusted for 80%/59% content of BL-S643
Description: as §1, §3, §4, §5, §6

K. pneumoniae A15130 = experiment: Antibiotic spectrum in nutrient broth (MIC); type: cell-based; settings: Klebsiella pneumoniae, 10^-4 dilution, BL-S1057/BL-S1058 adjusted for 80%/59% content of BL-S643
Description: as §1, §3, §4, §5, §6

K. pneumoniae A9977 = experiment: Antibiotic spectrum in nutrient broth (MIC); type: cell-based; settings: Klebsiella pneumoniae, 10^-4 dilution, BL-S1057/BL-S1058 adjusted for 80%/59% content of BL-S643
Description: as §1, §3, §4, §5, §6

Pr. mirabilis A9900 = experiment: Antibiotic spectrum in nutrient broth (MIC); type: cell-based; settings: Proteus mirabilis, 10^-4 dilution, BL-S1057/BL-S1058 adjusted for 80%/59% content of BL-S643
Description: as §1, §3, §4, §5, §6

Pr. morganii A15153 = experiment: Antibiotic spectrum in nutrient broth (MIC); type: cell-based; settings: Morganella morganii, 10^-4 dilution, BL-S1057/BL-S1058 adjusted for 80%/59% content of BL-S643
Description: as §1, §3, §4, §5, §6

Ps. aeruginosa A9843A = experiment: Antibiotic spectrum in nutrient broth (MIC); type: cell-based; settings: Pseudomonas aeruginosa
Description: as §1, §3, §4, §5, §6

S. aureus BX1633 A9606 = experiment: Antibiotic spectrum in nutrient broth (MIC); type: cell-based; settings: Staphylococcus aureus, BX1633A9606, nutrient broth, BL-S1057/BL-S1058 adjusted for 80%/59% content of BL-S643
Description: as §1, §3, §4, §5, §6

[1] = tested on: S. aureus Meth-Res A15097; experiment: Antibiotic spectrum in nutrient broth (MIC); type: cell-based; settings: Staphylococcus aureus, 10^-3 dilution, BL-S1057/BL-S1058 adjusted for 80%/59% content of BL-S643
Description: as §1, §3, §4, §5, §6

S. aureus Smith A9537 = experiment: Antibiotic spectrum in nutrient broth (MIC); type: cell-based; settings: Staphylococcus aureus, 10^-4 dilution, BL-S1057/BL-S1058 adjusted for 80%/59% content of BL-S643
Description: as §1, §3, §4, §5, §6

Sal. enteritidis A9531 = experiment: Antibiotic spectrum in nutrient broth (MIC); type: cell-based; settings: Salmonella enterica, 10^-4 dilution, BL-S1057/BL-S1058 adjusted for 80%/59% content of BL-S643
Description: as §1, §3, §4, §5, §6

Ser. marcescens A20019 = experiment: Antibiotic spectrum in nutrient broth (MIC); type: cell-based; settings: Serratia marcescens, 10^-4 dilution, BL-S1057/BL-S1058 adjusted for 80%/59% content of BL-S643
Description: as §1, §3, §4, §5, §6

[2] = Bio-assay (using cefatrizine as the standard); type: cell-based
Description: a. Bio-assay (using cefatrizine as the standard) = 759 mcg./mg.
a. Bio-assay (using cefatrizine as the standard) = 685 mcg./mg.

Solubility in water = type: physicochemical
Description: d. Solubility = >400 mg./ml. in water

[3] = Paper strip chromatography (hydrolysis to BL-S643); type: physicochemical; settings: 0 and 1 hour at 37° C.; 0.2 mg./ml.
[4] = Liquid chromatography, % hydrolyzed in buffer; type: physicochemical; settings: 1 mg./ml.
Description: f. Liquid chromatography = 100% hydrolyzed in pH 6.1 buffer within 1 hour at room temperature (concentration = 1 mg./ml.)
d. Liquid chromatography (1 mg./ml. in pH 6 buffer)

[5] = Paper chromatograms of rat urine after IM administration (antibiotically active metabolites); type: in vivo; settings: urine 0-2 and 2-4 hours; for Antibiotically active metabolites in rat urine (spots on paper chromatogram): descending chromatography system No. 9
Description: Paper chromatograms were run on rat urine collected between 0 and 2 and between 2 and 4 hours following IM administration of BL-S1057, 1058 and 643, for the detection of antibiotically active metabolites using descending chromatography with system No. 9 (butyl acetaten-butanol:glacial acetic acid:H2 O = 80:15:40:24).

[6] = SMITHA9537, nutrient broth +50% serum
[7] = SMITHA9537, nutrient broth, no serum

Structure (SMILES)	MIC (S. pneumoniae A9585) [µg/mL]	MIC (Str. pyogenes A9604) [µg/mL]	MIC (E. coli A9675) [µg/mL]	MIC (E. coli Juhl A15119) [µg/mL]	MIC (Ent. cloacae A9656) [µg/mL]	MIC (Ent. cloacae A9657) [µg/mL]	MIC (Ent. cloacae A9659) [µg/mL]	MIC (K. pneumoniae A15130) [µg/mL]	MIC (K. pneumoniae A9977) [µg/mL]	MIC (Pr. mirabilis A9900) [µg/mL]	MIC (Pr. morganii A15153) [µg/mL]	MIC (Ps. aeruginosa A9843A) [µg/mL]	MIC (S. aureus BX1633 A9606; 10^-2 dilution) [µg/mL]	MIC (S. aureus BX1633 A9606; 10^-3 dilution) [µg/mL]	MIC [1] [µg/mL]	MIC (S. aureus Smith A9537; [6]) [µg/mL]	MIC (S. aureus Smith A9537; [7]) [µg/mL]	MIC (Sal. enteritidis A9531) [µg/mL]	MIC (Ser. marcescens A20019) [µg/mL]	Antibiotically active metabolites in rat urine (spots on paper chromatogram) [5]	also measured
Cc1nnc(SCC2=C(C(=O)O)N3C(=O)C(N4C(=O)[C@@H](c5ccc(O)cc5)NC4c4ccco4)C3SC2)s1 (some centres unmarked) [BL-S1057]	0.016	0.008	4 (≈ 7 µM)	1 (≈ 1.75 µM)	> 125	0.5 (≈ 0.875 µM)	16 (≈ 28 µM)	4 (≈ 7 µM)	0.5 (≈ 0.875 µM)	0.5 (≈ 0.875 µM)	16 (≈ 28 µM)	> 125	4 (≈ 7 µM)	1 (≈ 1.75 µM)	2 (≈ 3.5 µM)	8 (≈ 14 µM)	0.5 (≈ 0.875 µM)	0.25 (≈ 0.437 µM)	125 (≈ 219 µM)	A single, identical spot	Bio-assay [2]: 759 µg/mg; solubility (Solubility in water): > 400 mg/mL; Paper strip chromatography zones [3]: Primarily 1 zone at Rf of BL-S643; degraded at 1 h ([4]; within 1 hour, pH 6.1 buffer, room temperature): 100%; Hydrolysis to parent compound (BL-S643) [5]: complete hydrolysis
Cc1nnc(SCC2=C(C(=O)O)N3C(=O)C(NC(=O)[C@H](N)c4ccc(O)cc4)C3SC2)s1 (some centres unmarked) [BL-S643, reference compound]	0.03	0.016	4 (≈ 8.1 µM)	1 (≈ 2.03 µM)	> 125	4 (≈ 8.1 µM)	32 (≈ 64.8 µM)	4 (≈ 8.1 µM)	0.5 (≈ 1.01 µM)	0.5 (≈ 1.01 µM)	16 (≈ 32.4 µM)	> 125	4 (≈ 8.1 µM)	1 (≈ 2.03 µM)	4 (≈ 8.1 µM)	8 (≈ 16.2 µM)	0.5 (≈ 1.01 µM)	0.25 (≈ 0.506 µM)	125 (≈ 253 µM)	A single, identical spot	–
Cc1nnc(SCC2=C(C(=O)O)N3C(=O)C(N4C(=O)[C@@H](c5ccc(O)cc5)NC4c4ccc(S(=O)(=O)O)o4)C3SC2)s1 (some centres unmarked) [BL-S1058]	0.016	0.008	2 (≈ 3.07 µM)	1 (≈ 1.53 µM)	> 125	0.5 (≈ 0.767 µM)	16 (≈ 24.6 µM)	2 (≈ 3.07 µM)	0.5 (≈ 0.767 µM)	0.5 (≈ 0.767 µM)	16 (≈ 24.6 µM)	> 125	4 (≈ 6.14 µM)	0.5 (≈ 0.767 µM)	2 (≈ 3.07 µM)	8 (≈ 12.3 µM)	0.25 (≈ 0.384 µM)	0.13 (≈ 0.199 µM)	125 (≈ 192 µM)	A single, identical spot	Bio-assay [2]: 685 µg/mg; Paper strip chromatography zones [3]: Primarily 1 zone at Rf of BL-S643; also recorded: evidence of a second zone; % Hydrolyzed ([4]; 0 hours, pH 6 buffer): 25.4%; degraded at 1 h ([4]; 1 hour, pH 6 buffer): 46.5%; degraded at 2 h ([4]; 2 hours, pH 6 buffer): 59%; Hydrolysis to parent compound (BL-S643) [5]: complete hydrolysis
